According to PubChem BioAssay AID1259407 (Chemical Carcinogenesis Research Information System (CCRIS), 2018):
Calls of active or inactive are those of the source. How the calls were made is not given here.

Tested on: CCRIS mutagenicity, Ames/micronucleus/aberration tests
Assay: CCRIS mutagenicity studies
[1] = Test System: AMES SALMONELLA TYPHIMURIUM, Strain/Indicator: TA100, Metabolic Activation: NONE, Method: PREINCUBATION
[2] = Test System: AMES SALMONELLA TYPHIMURIUM, Strain/Indicator: TA100, Metabolic Activation: RAT, LIVER, S-9, AROCLOR 1254, Method: PREINCUBATION
[3] = Test System: AMES SALMONELLA TYPHIMURIUM, Strain/Indicator: TA98, Metabolic Activation: NONE, Method: PREINCUBATION
[4] = Test System: AMES SALMONELLA TYPHIMURIUM, Strain/Indicator: TA100, Metabolic Activation: NONE, Method: STANDARD PLATE

O=Cc1ccc([N+](=O)[O-])o1
mutagenic call (Test System: AMES SALMONELLA TYPHIMURIUM, Strain/Indicator: TA98(1,8-DNP6), Metabolic Activation: NONE, Method: STANDARD PLATE): active; positive | mutagenic call (Test System: AMES SALMONELLA TYPHIMURIUM, Strain/Indicator: TA98(1,8-DNP6), Metabolic Activation: RAT, LIVER, S-9, 3-METHYLCHOLANTHRENE, Method: STANDARD PLATE): active; positive | mutagenic call (Test System: AMES SALMONELLA TYPHIMURIUM, Strain/Indicator: TA98(NR), Metabolic Activation: NONE, Method: STANDARD PLATE): active; positive | mutagenic call (Test System: AMES SALMONELLA TYPHIMURIUM, Strain/Indicator: TA98(NR), Metabolic Activation: RAT, LIVER, S-9, 3-METHYLCHOLANTHRENE, Method: STANDARD PLATE): active; positive | mutagenic call (Test System: AMES SALMONELLA TYPHIMURIUM, Strain/Indicator: TA98, Metabolic Activation: NONE, Method: STANDARD PLATE): active; positive | mutagenic call (Test System: AMES SALMONELLA TYPHIMURIUM, Strain/Indicator: TA98, Metabolic Activation: RAT, LIVER, S-9, 3-METHYLCHOLANTHRENE, Method: STANDARD PLATE): active; positive | mutagenic call (Test System: AMES SALMONELLA TYPHIMURIUM, Strain/Indicator: TA100(1,8-DNP6), Metabolic Activation: NONE, Method: PREINCUBATION): active; positive | mutagenic call (Test System: AMES SALMONELLA TYPHIMURIUM, Strain/Indicator: TA100(1,8-DNP6), Metabolic Activation: RAT, LIVER, S-9, AROCLOR 1254, Method: PREINCUBATION): active; positive | mutagenic call (Test System: AMES SALMONELLA TYPHIMURIUM, Strain/Indicator: TA100(NR), Metabolic Activation: NONE, Method: PREINCUBATION): active; positive | mutagenic call (Test System: AMES SALMONELLA TYPHIMURIUM, Strain/Indicator: TA100(NR), Metabolic Activation: RAT, LIVER, S-9, AROCLOR 1254, Method: PREINCUBATION): active; positive | mutagenic call [1]: active; positive | mutagenic call [2]: active; positive

O=[N+]([O-])O.O=[N+]([O-])O.[Cd+2]
mutagenic call (Test System: E. COLI, Strain/Indicator: DG1153, Metabolic Activation: NONE, Method: FLUCTUATION TEST): active; positive

c1cc2c3c(c1)ccc1cccc(c13)C2
mutagenic call (Test System: AMES SALMONELLA TYPHIMURIUM, Strain/Indicator: TA98, Metabolic Activation: HAMSTER, LIVER, S-9, AROCLOR 1254 (30%), Method: PREINCUBATION): active; positive | mutagenic call [3]: inactive; negative | mutagenic call (Test System: AMES SALMONELLA TYPHIMURIUM, Strain/Indicator: TA98, Metabolic Activation: RAT, LIVER, S-9, AROCLOR 1254 (30%), Method: PREINCUBATION): inactive; negative | mutagenic call (Test System: AMES SALMONELLA TYPHIMURIUM, Strain/Indicator: TA100, Metabolic Activation: HAMSTER, LIVER, S-9, AROCLOR 1254 (30%), Method: PREINCUBATION): active; positive | mutagenic call [1]: inactive; negative | mutagenic call (Test System: AMES SALMONELLA TYPHIMURIUM, Strain/Indicator: TA100, Metabolic Activation: RAT, LIVER, S-9, AROCLOR 1254 (30%), Method: PREINCUBATION): active; positive | mutagenic call (Test System: AMES SALMONELLA TYPHIMURIUM, Strain/Indicator: TA100, Metabolic Activation: RAT, LIVER, S-9, AROCLOR 1254, Method: STANDARD PLATE): inactive; negative

Nc1nc(Cl)c2[nH]cnc2n1
mutagenic call [4]: active; positive

CC(C)Oc1ccccc1OC(=O)N(C)N=O
mutagenic call (End Point: In vitro chromosomal aberrations, Test System: Chinese hamster ovary (CHO-W8) cells, Metabolic Activation: None): active; positive (structural changes) | mutagenic call (Test System: CHINESE HAMSTER V-79, Strain/Indicator: V-79 (HPRT)/6-THIOGUANINE, Metabolic Activation: NONE): active; positive | mutagenic call (Test System: E. COLI WP2, Strain/Indicator: WP2, Metabolic Activation: NONE, Method: STANDARD PLATE): active; positive

N=C(N)c1ccccc1
mutagenic call (Test System: AMES SALMONELLA TYPHIMURIUM, Strain/Indicator: TA98, Metabolic Activation: CO631 CELLS, Method: PREINCUBATION): inactive; negative | mutagenic call [3]: inactive; negative | mutagenic call (Test System: AMES SALMONELLA TYPHIMURIUM, Strain/Indicator: TA98, Metabolic Activation: RABBIT, LIVER, S-9, Method: PREINCUBATION): inactive; negative | mutagenic call (Test System: AMES SALMONELLA TYPHIMURIUM, Strain/Indicator: TA98, Metabolic Activation: RAT HEPATOCYTES, Method: PREINCUBATION): inactive; negative | mutagenic call (Test System: AMES SALMONELLA TYPHIMURIUM, Strain/Indicator: TA98, Metabolic Activation: RAT, LIVER, S-9, AROCLOR 1254, ATP, Method: PREINCUBATION): inactive; negative | mutagenic call (Test System: AMES SALMONELLA TYPHIMURIUM, Strain/Indicator: TA98, Metabolic Activation: RAT, LIVER, S-9, AROCLOR 1254, Method: PREINCUBATION): inactive; negative | mutagenic call (Test System: AMES SALMONELLA TYPHIMURIUM, Strain/Indicator: TA100, Metabolic Activation: RABBIT, LIVER, S-9, Method: PREINCUBATION): inactive; negative | mutagenic call (Test System: AMES SALMONELLA TYPHIMURIUM, Strain/Indicator: TA100, Metabolic Activation: RAT HEPATOCYTES, Method: PREINCUBATION): inactive; negative | mutagenic call (Test System: AMES SALMONELLA TYPHIMURIUM, Strain/Indicator: TA100, Metabolic Activation: RAT, LIVER, S-9, AROCLOR 1254, ATP, Method: PREINCUBATION): inactive; negative | mutagenic call [2]: inactive; negative

CCCOS(=O)(=O)c1ccc(C)cc1
mutagenic call (End Point: IN VITRO MICRONUCLEUS, Test System: MOUSE LYMPHOMA L5178Y CELLS, Metabolic Activation: NONE): inactive; negative; positive results only at highly excessively cytotoxic doses | mutagenic call (End Point: IN VITRO MICRONUCLEUS, Test System: MOUSE LYMPHOMA L5178Y CELLS, Metabolic Activation: RAT, LIVER, S-9): inactive; negative | mutagenic call (End Point: In vitro micronucleus, Test System: Chinese Hamster Ovary (CHO-WBL) cells, Metabolic Activation: None): inactive; negative | mutagenic call [4]: active; positive | mutagenic call (Test System: AMES SALMONELLA TYPHIMURIUM, Strain/Indicator: TA100, Metabolic Activation: RAT, LIVER, S-9, Method: STANDARD PLATE): active; positive

COC(=O)C1CSC2C(Cl)=C(Cl)C(=O)N12 (centres undefined)
mutagenic call [4]: active; positive

O=[N+]([O-])C(Br)Br
mutagenic call (Test System: Ames Salmonella typhimurium, Strain/Indicator: RSJ100, Metabolic Activation: None, Method: Standard plate): inactive; negative | mutagenic call (Test System: Ames Salmonella typhimurium, Strain/Indicator: RSJ100, Metabolic Activation: Rat, Liver, S-9, Aroclor, Method: Standard plate): inactive; negative | mutagenic call (Test System: Ames Salmonella typhimurium, Strain/Indicator: TA98, Metabolic Activation: None, Method: Standard plate): inactive; negative | mutagenic call (Test System: Ames Salmonella typhimurium, Strain/Indicator: TA98, Metabolic Activation: Rat, Liver, S-9, Aroclor, Method: Standard plate): inactive; negative | mutagenic call (Test System: Ames Salmonella typhimurium, Strain/Indicator: TA100, Metabolic Activation: None, Method: Standard plate): active; positive | mutagenic call (Test System: Ames Salmonella typhimurium, Strain/Indicator: TA100, Metabolic Activation: Rat, Liver, S-9, Aroclor, Method: Standard plate): active; positive | mutagenic call (Test System: Ames Salmonella typhimurium, Strain/Indicator: TA104, Metabolic Activation: None, Method: Standard plate): inactive; negative | mutagenic call (Test System: Ames Salmonella typhimurium, Strain/Indicator: TA104, Metabolic Activation: Rat, Liver, S-9, Aroclor, Method: Standard plate): inactive; negative | mutagenic call (Test System: Ames Salmonella typhimurium, Strain/Indicator: TPT100, Metabolic Activation: None, Method: Standard plate): inactive; negative
